This series is described as follows: Efficacy and toxicology studies (Table 9), intramuscular in rat. As to conditions: mouse efficacy and rat toxicology studies; formulated in DV-140-F2.

With `CCCCCCCCCCN(CC(N)=O)C(=O)CN(CCCCCCCCCC)C(=O)CN(CCCCCCCCCC)C(=O)CN(CCCCCCCCCC)C(=O)CNCCO` [Compound 140], the tolerability entry is given as “well-tolerated”.

The record behind these values is patent US20240307526A1, “COMPOSITIONS COMPRISING HYDROXYETHYL-CAPPED CATIONIC PEPTOIDS” (priority 2021, published 2024).
